According to US11931324B2, “Pharmaceutical composition for prevention or treatment of osteoarthritis comprising obtusifolin, derivative thereof, or pharmaceutically acceptable salt thereof as active ingredient” (KOREA INSTITUTE OF SCIENCE AND TECHNOLOGY, priority 2021, dated 2024):

Legend:
[1] = tested on: prostaglandin E2 (PGE2); assay: PGE2 production in IL-1β-treated chondrocytes (PGE2 Immunoassay Kit); format: cell-based, mouse
Method: (§1) PGE2 production was evaluated using a PGE2 Immunoassay Kit (R & D System, Minneapolis, Minnesota, USA). Primary articular chondrocytes of mouse were seeded in a 96-well plate (about 2×10^4 cells/well). The level of secreted PGE2 in the primary chondrocytes of mouse treated with obtusifolin and IL-1β (about 1 ng/mL) was measured from the […]. By using an EnzCheck Gelatinase/Collagenase Assay kit (Molecular Probes, Carlsbad, CA, USA), total collagenase activity of the articular chondrocytes cultured in a medium conditioned with obtusifolin and IL-1β (about 1 ng/mL) was measured. The collagenase activity was quantified using a VICTOR X3 microplate reader (PerkinElmer, Waltham, MA, USA) at Ex/Em=490/530 nm according to the protocol provided by the manufacturer. […] After culturing the transfected cells in a complete medium for about 24 hours, luciferase activity was evaluated using an analysis kit (Promega, Madison, WI, USA), and the evaluated activity was normalized by β-galactosidase.
(§2) In detail, chondrocytes treated with pro-inflammatory cytokine, IL-1β (about 1 ng/mL), for about 24 hours were treated with obtusifolin (about 0 μM to about 200 μM) or Celecoxib (about 50 μM). Then, in the resulting chondrocytes, the expression levels of matrix metalloproteinase 3 (MMP3), matrix metalloproteinase 13 (MMP13), and cyclooxygenase 2 (COX2) were measured by RT-PCR and qRT-PCR. […]

[2] = tested on: collagenase; assay: total collagenase activity of IL-1β-treated chondrocytes (EnzCheck Gelatinase/Collagenase Assay kit); format: cell-based, mouse
Method: as §1, §2

[3] = tested on: p65; assay: p65 phosphorylation (NF-κB signal transduction) in IL-1β-treated chondrocytes, Western blotting and densitometry; format: cell-based, mouse
Method: (§3) Interleukin 1 beta (IL-1β) purchased from GenScript (Piscataway, NJ, USA) was dissolved in purified water. Obtusifolin and celecoxib were purchased from Sigma-Aldrich (St. Louis, MO, USA). Primary chondrocytes of the mice were cultured for 4 days under conditions of a temperature of about 37° C. and about 5% CO2. Afterwards, IL-1β (about 1 ng/mL) and either of obtusifolin or celecoxib were treated and cultured for about 24 hours. Then, the cultured chondrocytes were collected after about 5 days. To confirm the signal transduction pathway regulated by obtusifolin, the chondrocytes were pre-treated with obtusifolin or celecoxib and cultured for about 24 hours. […]
(§4) Chondrocyte RNAs were isolated using Trizol and chloroform. […] Transcription levels were quantified by qRT-PCR (ABI, Beverley, UK; StepOnePlus Real-Time PCR System). […]
Here, as a loading control group, Erk1/2 was used. Band intensity was quantified by densitometry (AlphaEase FC 4.0; Alpha Innotech).
In detail, the chondrocytes treated with the pro-inflammatory cytokine, IL-1β (about 1 ng/mL), were collected, and the phosphorylation levels of p38, JNK, and p65 were measured through Western blotting. […] The chondrocytes were collected after the culture, and the phosphorylation level of p65 was measured through Western blotting and densitometry. […]

[4] = tested on: primary chondrocytes; assay: lactate dehydrogenase (LDH) cytotoxicity assay; format: cell-based, mouse; conditions: 24 hours, concentration of about 200 μM or less (FIG. 1)
Method: (§5) Mouse chondrocytes isolated from femur and tibial plateau were obtained from ICR mice of 5-days old. Cells were cultured in Dulbecco's Modified Eagle's medium to which about 10% fetal bovine serum and about 1% penicillin/streptomycin, and then grown in an incubator under conditions maintained with about 5% CO2 and a temperature of about 37° C. C57BL/6 mice (male, 10-weeks old, weighing about 18 g to 20 g, and n=5) were purchased from DBL (Chungcheongbuk-do, South Korea). The C57BL/6 mice were housed at a temperature of about 23° C. and exposed to a light-dark cycle of about 12 hours. Food and water were provided regularly. All animal experiments were performed under the approval of the Ajou University Animal Care and Use Committee.
The primary chondrocytes were treated with obtusifolin (0 μM, about 25 μM, about 50 μM, about 100 μM, and about 200 μM) and cultured for about 24 hours. Then, the supernatant of the culture was collected and allowed for a reaction using a LDH-cytotoxicity assay kit (K311-400; BioVision). According to the recommendations provided by the kit manufacturer, values were measured.
In this experimental example, cytotoxicity of obtusifolin was measured using a lactate dehydrogenase-assay to determine whether obtusifolin affected chondrocytes. Detailed experimental methods were described in Reference Example.

[5] = tested on: matrix metalloproteinase 3 (MMP3); assay: MMP3 expression in IL-1β-treated chondrocytes (RT-PCR, qRT-PCR); format: cell-based, mouse
Method: as §3, §4
as §2, with “qRT-PCR. In addition, the activity level of collagenase and the expression level of prostaglandin (PGE2) were measured.” for “qRT-PCR.”

[6] = tested on: matrix metalloproteinase 13 (MMP13); assay: MMP13 expression in IL-1β-treated chondrocytes (RT-PCR, qRT-PCR); format: cell-based, mouse
Method: as §3, §4
as §2, with “qRT-PCR. In addition, the activity level of collagenase and the expression level of prostaglandin (PGE2) were measured.” for “qRT-PCR.”

[7] = tested on: cyclooxygenase 2 (COX2); assay: COX2 expression in IL-1β-treated chondrocytes (RT-PCR, qRT-PCR); format: cell-based, mouse
Method: as §3, §4
as §2, with “qRT-PCR. In addition, the activity level of collagenase and the expression level of prostaglandin (PGE2) were measured.” for “qRT-PCR.”

[8] = tested on: mice that have undergone DMM surgery; assay: cartilage destruction induced by DMM surgery, mouse model, oral administration; format: in vivo
Method: as §5
According to a known technique, destabilization of the medial meniscus (DMM) surgery was performed on a mouse of about 10 week old to induce OA. Here, a Sham-operated mouse was used as a control group. […]
A mouse cartilage sample obtained from the mouse undergoing the DMM surgery was fixed about 4% para-formaldehyde followed by dehydration for about 2 weeks in about 0.5 mol/L EDTA (pH 8.0), to decalcify. […] The cartilage destruction was measured by Safranin O staining and scored using an Osteoarthritis Research […] International (OARSI) grading system.
Data values were expressed as mean±SEM after repeated experiments. […] Histological data were quantified based on an ordinal grading system including OARSI grades, subchondral bone plate thickness scores, and osteophyte grades, using non-parametric statistical methods. […]
In detail, the DMM surgery or shame surgery was performed on mice, and after about 4 weeks of the surgery, obtusifolin (about 10 mg/kg, about 50 mg/kg, or about 100 mg/kg) was administered to each mouse every day for 6 weeks. […] The degree of cartilage destruction was analyzed by analyzing images obtained after the staining. In detail, the OARSI grades, the degree of osteophyte formation, and a thickness of the subchondral bone were measured. […]

[9] = chondrocytes treated with IL-1β (about 1 ng/mL), obtusifolin about 0 μM to about 200 μM (FIG. 2C)
[10] = obtusifolin about 100 μM to about 200 μM vs Celecoxib about 50 μM
[11] = chondrocytes treated with IL-1β (about 1 ng/mL), obtusifolin about 0 μM to about 200 μM (FIGS. 2A, 2B)

Structure (SMILES): COc1c(O)c(C)cc2c1C(=O)c1c(O)cccc1C2=O [obtusifolin]
- expression of PGE2 [1, 9]: decreased in a dose-dependent manner
- effect of reducing expression of PGE2 compared with Celecoxib [1, 10]: the same or similar level of effects as Celecoxib
- activity of collagenase [2, 9]: decreased in a dose-dependent manner
- effect of reducing activity of collagenase compared with Celecoxib [2, 10]: the same or similar level of effects as Celecoxib
- inhibition of phosphorylation of P65 compared with Celecoxib [3, 10]: the same or similar level to that of Celecoxib
- phosphorylation of P65 ([3]; pre-treated 24 hours with obtusifolin about 0 μM to 200 μM, then IL-1β (about 1 ng/mL) 10 minutes, as concentration increased (FIGS. 3B, 3C)): the phosphorylation of P65 was inhibited
- cytotoxicity [4]: did not exhibit cytotoxicity
- expression level of MMP3 [5, 11]: decreased in a dose-dependent manner
- effect of reducing expression of MMP3 compared with Celecoxib [5, 10]: the same or similar level of effects as Celecoxib
- expression of MMP13 [6, 11]: decreased again
- effect of reducing expression of MMP13 compared with Celecoxib [6, 10]: the same or similar level of effects as Celecoxib
- expression level of COX2 [7, 11]: decreased in a dose-dependent manner
- effect of reducing expression of COX2 compared with Celecoxib [7, 10]: the same or similar level of effects as Celecoxib
- formation of osteophytes ([8]; DMM surgery mice, oral about 10, 50 or 100 mg/kg every day for 6 weeks (FIG. 5C)): reduced in a dose-dependent manner
- degree of cartilage destruction (Safranin O staining) ([8]; DMM surgery mice, oral about 10, 50 or 100 mg/kg every day for 6 weeks from 4 weeks after surgery (FIG. 5A)): decreased in a dose-dependent manner
- effects according to the dose concentration in sham surgery mice ([8]; sham surgery mice, oral about 10, 50 or 100 mg/kg every day for 6 weeks (FIGS. 5A to 5D)): no difference in the effects
